According to ChEMBL document CHEMBL1126154, “Pyrrole mannich bases as potential antipsychotic agents” (J Med Chem, 1992):

Columns and labels:
Rattus norvegicus [1] = experiment: Antipsychotic activity at a dose 10 times the ED50 value for CAR block for production of catalepsy in the rat (following i.p. dosing); format: functional; conditions: ip
[2] = biological target: 5-hydroxytryptamine receptor 1B (Rattus norvegicus, UniProt P28564); experiment: The compound was tested for its binding affinity towards 5-hydroxytryptamine 1B receptor by displacing [3H]serotonin radioligand in rat cerebral cortex; format: tissue-based
5-hydroxytryptamine receptor 1B, sequence (P28564 whole entry): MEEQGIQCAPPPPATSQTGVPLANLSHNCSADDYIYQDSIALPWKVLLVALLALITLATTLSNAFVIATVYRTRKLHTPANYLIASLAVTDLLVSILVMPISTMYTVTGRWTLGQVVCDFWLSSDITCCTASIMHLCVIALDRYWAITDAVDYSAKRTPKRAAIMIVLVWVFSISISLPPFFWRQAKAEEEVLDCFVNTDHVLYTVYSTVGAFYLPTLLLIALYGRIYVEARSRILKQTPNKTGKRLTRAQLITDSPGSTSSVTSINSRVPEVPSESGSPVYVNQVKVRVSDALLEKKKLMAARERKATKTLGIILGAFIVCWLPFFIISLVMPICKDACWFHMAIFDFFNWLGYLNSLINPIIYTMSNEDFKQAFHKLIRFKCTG

Rattus norvegicus [3] = experiment: The percentage production of catalepsy in rat at a dose of 50 mg/kg ip.; format: functional
D(2) dopamine receptor = D(2) dopamine receptor (Rattus norvegicus, UniProt P61169); experiment: The compound was tested for its binding affinity towards Dopamine receptor D2 by displacing [3H]spiperone radioligand in rat striatum
D(2) dopamine receptor, sequence (P61169 whole entry): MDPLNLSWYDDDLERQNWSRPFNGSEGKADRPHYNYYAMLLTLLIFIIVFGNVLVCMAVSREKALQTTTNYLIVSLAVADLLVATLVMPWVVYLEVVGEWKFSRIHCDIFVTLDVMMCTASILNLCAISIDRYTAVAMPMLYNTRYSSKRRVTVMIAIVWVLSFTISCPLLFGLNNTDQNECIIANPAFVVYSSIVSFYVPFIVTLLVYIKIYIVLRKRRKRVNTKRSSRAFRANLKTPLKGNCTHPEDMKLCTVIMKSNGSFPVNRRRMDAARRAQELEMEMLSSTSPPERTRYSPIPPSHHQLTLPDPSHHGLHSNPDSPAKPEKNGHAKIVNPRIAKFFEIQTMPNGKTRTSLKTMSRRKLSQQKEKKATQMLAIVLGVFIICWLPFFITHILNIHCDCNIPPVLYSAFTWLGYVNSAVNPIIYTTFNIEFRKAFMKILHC

[4] = biological target: T1, Adrenergic receptor alpha-1 (Rattus norvegicus, UniProt P15823+P23944+P43140); experiment: The compound was tested for its binding affinity towards Alpha-1 adrenergic receptor by displacing [3H]WB-4101 radioligand in rat cerebral cortex; format: tissue-based
T1 sequence (P15823 whole entry): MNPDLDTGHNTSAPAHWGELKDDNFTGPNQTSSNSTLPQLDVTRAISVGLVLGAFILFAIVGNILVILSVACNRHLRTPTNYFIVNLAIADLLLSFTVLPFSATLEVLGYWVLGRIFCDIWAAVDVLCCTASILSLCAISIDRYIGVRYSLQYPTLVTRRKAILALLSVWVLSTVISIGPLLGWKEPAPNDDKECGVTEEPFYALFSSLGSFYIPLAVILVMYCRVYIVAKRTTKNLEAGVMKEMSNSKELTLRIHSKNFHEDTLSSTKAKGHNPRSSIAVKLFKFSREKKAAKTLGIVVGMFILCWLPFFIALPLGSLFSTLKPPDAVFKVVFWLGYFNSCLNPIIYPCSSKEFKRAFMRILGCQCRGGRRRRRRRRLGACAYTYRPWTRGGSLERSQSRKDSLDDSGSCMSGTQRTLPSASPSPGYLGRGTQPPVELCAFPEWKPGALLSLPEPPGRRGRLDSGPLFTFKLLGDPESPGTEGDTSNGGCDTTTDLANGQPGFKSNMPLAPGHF
T1 sequence (P23944 whole entry): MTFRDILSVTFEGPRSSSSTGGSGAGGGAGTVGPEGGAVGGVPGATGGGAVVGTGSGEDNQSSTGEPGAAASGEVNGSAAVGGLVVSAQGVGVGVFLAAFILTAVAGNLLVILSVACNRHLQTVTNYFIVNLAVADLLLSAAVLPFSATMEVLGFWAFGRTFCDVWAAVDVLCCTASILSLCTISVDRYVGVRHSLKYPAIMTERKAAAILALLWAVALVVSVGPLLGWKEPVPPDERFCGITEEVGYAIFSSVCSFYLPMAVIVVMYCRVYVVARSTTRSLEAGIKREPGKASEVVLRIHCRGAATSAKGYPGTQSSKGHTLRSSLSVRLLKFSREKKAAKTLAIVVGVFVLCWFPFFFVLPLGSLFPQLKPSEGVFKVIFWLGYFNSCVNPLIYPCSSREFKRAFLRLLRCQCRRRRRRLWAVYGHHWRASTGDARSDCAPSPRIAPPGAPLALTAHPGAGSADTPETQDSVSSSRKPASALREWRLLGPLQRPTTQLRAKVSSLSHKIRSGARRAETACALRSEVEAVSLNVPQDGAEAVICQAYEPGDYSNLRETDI
T1 sequence (P43140 whole entry): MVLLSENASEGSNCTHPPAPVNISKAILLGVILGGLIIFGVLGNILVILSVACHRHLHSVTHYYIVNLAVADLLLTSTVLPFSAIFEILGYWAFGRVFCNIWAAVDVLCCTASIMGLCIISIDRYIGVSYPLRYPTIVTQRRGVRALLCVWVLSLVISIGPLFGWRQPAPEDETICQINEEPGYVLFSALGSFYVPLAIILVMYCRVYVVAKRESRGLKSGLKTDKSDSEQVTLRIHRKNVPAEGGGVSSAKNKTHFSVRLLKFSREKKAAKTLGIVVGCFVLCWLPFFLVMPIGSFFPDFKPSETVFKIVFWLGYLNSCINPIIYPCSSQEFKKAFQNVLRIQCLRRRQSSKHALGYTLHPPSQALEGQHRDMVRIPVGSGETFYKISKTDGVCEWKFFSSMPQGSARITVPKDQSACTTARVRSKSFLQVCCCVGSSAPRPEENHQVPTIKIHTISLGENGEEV

[5] = biological target: T2, 5-hydroxytryptamine receptor 1A (Rattus norvegicus, UniProt P19327); experiment: Binding affinity towards 5-hydroxytryptamine 1A receptor by displacing [3H]WB-4101 from rat hippocampus; format: tissue-based
T2 sequence (P19327 whole entry): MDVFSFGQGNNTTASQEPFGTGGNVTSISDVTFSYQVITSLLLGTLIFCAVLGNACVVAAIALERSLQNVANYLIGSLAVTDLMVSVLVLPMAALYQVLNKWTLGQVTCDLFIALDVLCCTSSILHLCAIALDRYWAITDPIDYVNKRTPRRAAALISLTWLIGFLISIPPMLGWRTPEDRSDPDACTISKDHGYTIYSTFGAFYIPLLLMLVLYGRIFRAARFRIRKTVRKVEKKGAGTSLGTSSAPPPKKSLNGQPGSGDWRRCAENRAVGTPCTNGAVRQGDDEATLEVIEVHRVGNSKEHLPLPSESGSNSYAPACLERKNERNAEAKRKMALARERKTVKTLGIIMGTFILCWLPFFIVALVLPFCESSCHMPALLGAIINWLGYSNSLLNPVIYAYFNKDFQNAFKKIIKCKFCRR

[6] = biological target: Serotonin 2 (5-HT2) receptor (Rattus norvegicus, UniProt P30994+P08909+P14842); experiment: The compound was tested for its binding affinity towards 5-hydroxytryptamine 2 receptor by displacing [3H]ketanserin radioligand in rat cerebral cortex; format: tissue-based
Rattus norvegicus [7] = experiment: The percentage production of catalepsy in rat at a dose of 37 mg/kg ip.; format: functional
[8] = biological target: Serotonin 1 (5-HT1) receptor (Rattus norvegicus, UniProt P28564+P30940+P19327+P28565); experiment: The compound was tested for its binding affinity towards 5-hydroxytryptamine 1 receptor by displacing [3H]5-HT radioligand in rat cerebral cortex; format: tissue-based
Rattus norvegicus [9] = experiment: The compound was measured at a dose 10 times the ED50 value for CAR block for production of catalepsy in the rat via oral administration.; format: functional
Rattus norvegicus [10] = experiment: The percentage production of catalepsy in rat at a dose of 57 mg/kg ip.; format: functional
Rattus norvegicus [11] = experiment: The percentage production of catalepsy in rat at a dose of 70 mg/kg ip.; format: functional
Rattus norvegicus [12] = organism: Rattus norvegicus; experiment: ED50 value for catalepsy indicates the dose required to produce a 50% of maximum catalepsy score.; format: functional
Rattus norvegicus [13] = experiment: The percentage production of catalepsy in rat at a dose of 54 mg/kg ip.; format: functional
Rattus norvegicus [14] = experiment: The percentage production of catalepsy in rat at a dose of 27 mg/kg ip.; format: functional
Rattus norvegicus [15] = experiment: The percentage production of catalepsy in rat at a dose of 100 mg/kg ip.; format: functional
Rattus norvegicus [16] = organism: Rattus norvegicus; experiment: ED50 value for catalepsy indicates the dose required to produce a 50% of maximum catalepsy score. parentheses; format: functional
Rattus norvegicus [17] = experiment: The percentage production of catalepsy in rat at a dose of 90 mg/kg ip.; format: functional
Rattus norvegicus [18] = experiment: The percentage production of catalepsy in rat at a dose of 20 mg/kg ip.; format: functional
[19] = Rattus norvegicus, po, read-out: ED50

| SMILES | ED50 (Rattus norvegicus [1]) [mg/kg] | Ki [4] [nM] | Ki [6] [nM] | Ki [8] [nM] | ED50 (Rattus norvegicus [9]; [19]) [mg/kg] | further results |
| --- | --- | --- | --- | --- | --- | --- |
| Cn1c(CN2CCN(c3cccc(Cl)c3)CC2)ccc1CN1CCCCC1=O | 10.4 |  |  |  |  | Ki [2]: 95 nM; % catalepsy at 50 mg/kg (Rattus norvegicus [3]): 28% |
| Cc1nc2sccn2c(=O)c1CCN1CCC(=C(c2ccc(F)cc2)c2ccc(F)cc2)CC1 [RITANSERIN] | > 3 | 49.5 |  |  |  | Ki (D(2) dopamine receptor): 53.2 nM |
| CCC(C)Oc1ccccc1N1CCN(Cc2ccc(CN3CCCCC3=O)n2C)CC1 (configuration not stated) | 3.7 | 17.4 | 267 | 29.3 |  | Ki [5]: 1.8 nM; Ki [2]: 45 nM; % catalepsy at 37 mg/kg (Rattus norvegicus [7]): 17% |
| CC(C)Oc1ccccc1N1CCN(Cc2ccc(CN3CCCCCC3=O)n2C)CC1 | 5.7 | 16.3 | 1000 | 68.8 | 18.9 | % catalepsy at 57 mg/kg (Rattus norvegicus [10]): 26% |
| CN1CCN(C2=Nc3cc(Cl)ccc3Nc3ccccc32)CC1 [CLOZAPINE] |  |  |  |  | 32.5 | % catalepsy at 70 mg/kg (Rattus norvegicus [11]): 10%; ED50 (Rattus norvegicus [12]): > 70 mg/kg |
| CC(C)Oc1ccccc1N1CCN(Cc2ccc(CN3CCCCC3=O)n2C)CC1 [RWJ-25730] |  |  | 1006 |  |  | % catalepsy at 54 mg/kg (Rattus norvegicus [13]): 12.1%; ED50 (Rattus norvegicus [9]): 10.4 mg/kg |
| CC(C)Oc1ccccc1N1CCN(Cc2ccc(CN3CCCC3=O)n2C)CC1 | 2.2 | 7.3 | 386 | 120 | > 20 | % catalepsy at 27 mg/kg (Rattus norvegicus [14]): 52% |
| CC(C)c1ccccc1N1CCN(Cc2ccc(CN3CCCCCC3=O)n2C)CC1 | 10 | 53.9 | 110 | 82.1 | > 30 | % catalepsy at 100 mg/kg (Rattus norvegicus [15]): 17% |
| COc1ccccc1N1CCNCC1 | 5.6 |  | > 100 | 28 |  | ED50 (Rattus norvegicus [16]): > 45 mg/kg |
| CC(C)c1ccccc1N1CCN(Cc2ccc(CN3CCCCC3=O)n2C)CC1 | 8.9 |  | 137 | 41.3 | > 30 | % catalepsy at 90 mg/kg (Rattus norvegicus [17]): 19% |
| CCOc1ccccc1N1CCN(Cc2ccc(CN3CCCC3=O)n2C)CC1 | 1.8 | 27.5 | 455 | 76 | 32 | % catalepsy at 20 mg/kg (Rattus norvegicus [18]): 97% |
